Results: patent US7211434B2, “Primitive neural stem cells and method for differentiation of stem cells to neural cells” (priority 2000, dated 2007)

How the values were obtained:
Type in all cases: cell-based, mouse
[1] = system: ES-derived neural sphere colony cells; assay: Subcloning of single ES-derived sphere colonies (secondary colony formation, self-renewal); conditions: subcloned single primary colonies; factor alone
Protocol: Self-renewal of primary colony-formin) ES cells was assessed as previously described (Tropepe et al., 1999). Single sphere colonies were isolated, mechanically dissociated into a single cell suspension in 0.2 ml of serum-free media containing various combinations of LIF (1000 U/ml), […] (10 ng/ml), heparin (2 (g/ml), EGF (20 ng/ml; Upstate Biotech) or B27 supplement (1X) and cultured in 96-well (Nunclon) plates. Secondary sphere colonies were quantified after 7–10 days. A similar procedure was used for repeated passaging experiments. Cell viability after a 7-day culture period (sphere colony assay) or after 4–24 hours (short-term ES differentiation assay) was determined using trypan blue exclusion (1:2 dilution of 0.4% trypan blue; Gibco).

ES cells = assay: Primary neural sphere colony formation from ES cells in serum-free low-density culture, 7 days; conditions: for primary colony formation, factor alone: ES cells at relatively low cell densities, serum-free, 7 days in vitro
Protocol: For passaging ES cells, cultures were disaggregated with 0.05% trypsin dissolved in Tris-saline/EDTA for 5–10 minutes, mechanically dissociated, centrifuged and resuspended in culture medium.
Passaged ES cells were washed (2 times), centrifuged and resuspended in chemically defined serum-free media (Reynolds et al., 1992; Reynolds & Weiss, 1996) composed of a 1:1 mixture of Dulbecco's modified Eagle's medium (DMEM GIBCO) and F-12 nutrient (GIBCO) including 0.6% glucose (Sigma), 2 mM glutamine (GIBCO), 3 mM sodium bicarbonate (Sigma), and 5 mM HEPFS buffer (Sigma). A defined hormone and salt mixture (Sigma) that included insulin (25 (g/ml), transferrin (100 (g/ml), progestrone (20 nM), putrescine (60 (M), and selenium chloride (30 nM) was used instead of serum. ES cells were plated at various cell densities in 24-well culture plates (Nunclon) in the presence of either LIF (1000 U/ml), LIF+FGF2 (10 ng/ml; Upstate Biotech or Sigma) and 2 (g/ml heparin (Sigma), or in the absence of any exogenous growth factors. For short term (4–24 hours) neural differentiation, ES cells were plated in identical culture conditions in 24-well culture plates (Nunclon) that were precoated with poly-L-ornithine (15 μg/ml, Gibco).
Limiting dilution analysis was performed as previously described (Bellows and Aubin, 1989; Tropepe et al., 1999). ES cells were plated in 24-well plates containing LIF (1000 U/ml). Cell numbers were adjusted to give a starting concentration of 5000 cells/ml from which serial dilutions were made. Final cell dilutions ranged from 1000 cells per well to 1 cell per well in 0.5 ml aliquots. Cultures were left undisturbed for 7 days after which time the fraction of wells not containing sphere colonies for each cell plating density was calculated and those points were plotted against the number of cells plated per well. The number of cells required to form one sphere colony, which reflected the proportion of neural stem cells in the entire population, was then determined from the point at which the regression line crossed the 0.37 level (37%). […]

[2] = system: neural stem cells from the E9.5 forebrain; assay: Sphere colony formation from E9.5 forebrain neural stem cells
Protocol: Pregnant CD1 mice (Charles River, Quebec) of gestational age (9.5 (E9.5) or E11.5 (see below) were killed via cervical dislocation and embryos were removed as previously described (Chiasson et al., 1999; Tropepe et al., 1999). Dissected germinal zone from the E9.5 telencephalon was transferred to serum-free media and mechanically dissociated into a cell suspension with a fire-polished Pasteur pipette. Cell viability was assessed using trypan blue. Cells were plated at 10 cells/μl in 24-well (0.5 ml/well) uncoated plates (Nunclon) in serum-free media containing either FGF2 (10 ng/ml)+heparin (2 (g/ml) or FGF2+heparin+LIF (1000 U/ml). Self-renewal of neural stem cells that generated primary sphere colonies (selecting mainly floating colonies after 7 days in vitro) were routinely subcloned by mechanically dissociating a single colony in 0.2 ml of serum-free media, in identical growth factor conditions as the primary culture, and plated in uncoated 96-well (0.2 ml/well) plates (Nunclon). The number of new secondary colonies was quantified after a further 6–7 days in vitro. Neural stem cell colonies from the adult forebrain subependyma were isolated as previously described (Chiasson et al., 1999) and cultured as above.

Substance | secondary neural stem cell colony formation [1] | primary colony formation, factor alone (ES cells) | estimated frequency of sphere colony forming cells (ES cells; limiting dilution assay in the presence of LIF (1000 U/ml)) | E9.5 neural stem cell proliferation, LIF alone ([2]; LIF alone) | numbers of neural stem cells forming sphere colonies, with FGF2 ([2]; LIF in the presence of FGF2, compared to FGF2 alone)
EGF: growth factor, 20 ng/ml; Upstate Biotech (NSDSECPLSHDGYCLHDGVCMYIEALDKYACNCVVGYIGERCQYRDLKWWELR; Epidermal growth factor; UniProt P01133 971-1023, looked up) | not observed | no cell colonies were generated |  |  | 
LIF: leukemia inhibitory factor, cytokine added at 1000 U/ml | not sufficient for secondary colony formation | floating sphere-like colonies were generated | ~0.2% | not sufficient for E9.5 neural stem cell proliferation | can enhance the numbers of FGF-responsive neural stem cells
